Laboratory results from patent US12435092B2, “Substituted imidazo[1,2-A]quinazolines as inhibitors of PARG” (858 Therapeutics, Inc., priority 2022, dated 2025).

What follows are molecules tested against T1, cellular PARG (Homo sapiens, UniProt Q86W56) (assay: Nuclear PAR accumulation assay (immunofluorescence high-content imaging)). Settings: HeLa cells, 1 hour compound treatment then MMS 50 μg/mL for an additional hour.
T1 construct: endogenous in cells; host or cells: HeLa
Format: cell-based
How it was run: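 HeLa cells pretreated 1 h at 37 °C with compound, then 1 h with 50 μg/mL MMS (final), methanol-fixed and immunostained for PAR with DAPI nuclear counterstain. Nuclear PAR intensity and percent PAR-positive cells quantified by high-content imaging (≥1,000 cells/well). IC50 by four-parameter logistic fit, normalized to 0.1% DMSO and reference-compound controls.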

T1 sequence (Q86W56 whole entry): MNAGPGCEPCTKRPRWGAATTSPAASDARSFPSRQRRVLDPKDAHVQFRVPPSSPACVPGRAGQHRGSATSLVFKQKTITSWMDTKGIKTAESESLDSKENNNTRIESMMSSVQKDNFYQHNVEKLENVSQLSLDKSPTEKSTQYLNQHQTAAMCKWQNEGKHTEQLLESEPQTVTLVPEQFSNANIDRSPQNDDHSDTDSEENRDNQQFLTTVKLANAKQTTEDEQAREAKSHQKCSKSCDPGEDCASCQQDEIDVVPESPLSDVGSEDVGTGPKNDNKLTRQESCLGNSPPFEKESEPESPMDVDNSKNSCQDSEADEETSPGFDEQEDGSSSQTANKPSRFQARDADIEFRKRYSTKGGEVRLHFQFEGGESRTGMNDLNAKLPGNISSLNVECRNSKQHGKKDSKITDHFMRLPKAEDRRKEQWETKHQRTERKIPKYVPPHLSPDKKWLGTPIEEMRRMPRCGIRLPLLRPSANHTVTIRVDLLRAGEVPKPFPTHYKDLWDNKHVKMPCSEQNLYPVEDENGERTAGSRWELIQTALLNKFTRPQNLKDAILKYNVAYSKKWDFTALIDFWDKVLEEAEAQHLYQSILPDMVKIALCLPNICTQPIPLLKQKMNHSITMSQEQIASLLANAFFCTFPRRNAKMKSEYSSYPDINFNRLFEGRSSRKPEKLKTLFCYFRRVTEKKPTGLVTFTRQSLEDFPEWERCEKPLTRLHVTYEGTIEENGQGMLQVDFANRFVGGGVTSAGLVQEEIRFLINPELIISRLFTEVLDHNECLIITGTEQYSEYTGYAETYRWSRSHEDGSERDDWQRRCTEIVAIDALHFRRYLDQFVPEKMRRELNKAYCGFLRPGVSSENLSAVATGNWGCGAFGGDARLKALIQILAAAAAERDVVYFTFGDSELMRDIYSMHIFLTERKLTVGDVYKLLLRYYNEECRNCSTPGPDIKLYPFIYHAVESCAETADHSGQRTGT

Compound | IC50 [µM]
CNC[C@@H]1CN=C2N(Cc3cnn(C)c3)C(=O)c3cc(S(=O)(=O)NC4(C)CC4)ccc3N21 [Example 99, (R)-4-((1-methyl-1H-pyrazol-4-yl)methyl)-1-((methylamino)methyl)-N-(1-methylcyclopropyl)-5-oxo-1,2,4,5-tetrahydroimidazo[1,2-a]quinazoline-7-sulfonamide] | 0.1 to 1
Cn1cc(CN2C(=O)c3cc(S(=O)(=O)NC4(C)CC4)ccc3N3CC4(CC4)N=C23)cn1 [Example 100, 4′-((1-methyl-1H-pyrazol-4-yl)methyl)-N-(1-methylcyclopropyl)-5′-oxo-4′,5′-dihydro-1′H-spiro[cyclopropane-1,2′-imidazo[1,2-a]quinazoline]-7′-sulfonamide] | ≤ 0.1
Cn1cc(CN2C(=O)c3cc(S(=O)(=O)NC4(C)CC4)ccc3N3CC4(CCC4)N=C23)cn1 [Example 101, 4′-((1-methyl-1H-pyrazol-4-yl)methyl)-N-(1-methylcyclopropyl)-5′-oxo-4′,5′-dihydro-1′H-spiro[cyclobutane-1,2′-imidazo[1,2-a]quinazoline]-7′-sulfonamide] | ≤ 0.1
Cn1cc(CN2C(=O)c3cc(S(=O)(=O)NC4(C)CC4)ccc3N3CC4(CC(F)(F)C4)N=C23)cn1 [Example 102, 3,3-difluoro-4′-((1-methyl-1H-pyrazol-4-yl)methyl)-N-(1-methylcyclopropyl)-5′-oxo-4′,5′-dihydro-1′H-spiro[cyclobutane-1,2′-imidazo[1,2-a]quinazoline]-7′-sulfonamide] | ≤ 0.1
Cn1cc(CN2C(=O)c3cc(S(=O)(=O)NC4(C)CC4)ccc3N3CC4(CCOC4)N=C23)cn1 (centres unmarked) [Example 103, 4′-((1-methyl-1H-pyrazol-4-yl)methyl)-N-(1-methylcyclopropyl)-5′-oxo-4,4′,5,5′-tetrahydro-1′H,2H-spiro[furan-3,2′-imidazo[1,2-a]quinazoline]-7′-sulfonamide] | ≤ 0.1
Cn1cc(CN2C(=O)c3cc(S(=O)(=O)NC4(C)CC4)ccc3N3C2=NCC32CCC2)cn1 [Example 104, 4′-((1-methyl-1H-pyrazol-4-yl)methyl)-N-(1-methylcyclopropyl)-5′-oxo-4′,5′-dihydro-2′H-spiro[cyclobutane-1,1′-imidazo[1,2-a]quinazoline]-7′-sulfonamide] | ≤ 0.1
Cn1cc(CN2C(=O)c3cc(S(=O)(=O)NC4(C)CC4)ccc3N3C2=NCC32COC2)cn1 [Example 105, 4-((1-methyl-1H-pyrazol-4-yl)methyl)-N-(1-methylcyclopropyl)-5-oxo-4,5-dihydro-2H-spiro[imidazo[1,2-a]quinazoline-1,3′-oxetane]-7-sulfonamide] | 0.1 to 1
C[C@H]1CN2C(=N1)N(Cc1cnn(C)c1)C(=O)c1cc(S(=O)(=O)NC3(C)CC3)ccc12 [Example 106, (S)-2-methyl-4-((1-methyl-1H-pyrazol-4-yl)methyl)-N-(1-methylcyclopropyl)-5-oxo-1,2,4,5-tetrahydroimidazo[1,2-a]quinazoline-7-sulfonamide] | ≤ 0.1
C[C@@H]1CN2C(=N1)N(Cc1cnn(C)c1)C(=O)c1cc(S(=O)(=O)NC3(C)CC3)ccc12 [Example 107, (R)-2-methyl-4-((1-methyl-1H-pyrazol-4-yl)methyl)-N-(1-methylcyclopropyl)-5-oxo-1,2,4,5-tetrahydroimidazo[1,2-a]quinazoline-7-sulfonamide] | 0.1 to 1
C[C@@H]1N=C2N(Cc3cnn(C)c3)C(=O)c3cc(S(=O)(=O)NC4(C)CC4)ccc3N2[C@@H]1C [Example 108, (1R,2S)-1,2-dimethyl-4-((1-methyl-1H-pyrazol-4-yl)methyl)-N-(1-methylcyclopropyl)-5-oxo-1,2,4,5-tetrahydroimidazo[1,2-a]quinazoline-7-sulfonamide] | ≤ 0.1
C[C@@H]1[C@@H](C)N=C2N(Cc3cnn(C)c3)C(=O)c3cc(S(=O)(=O)NC4(C)CC4)ccc3N21 [Example 109, (1R,2R)-1,2-dimethyl-4-((1-methyl-1H-pyrazol-4-yl)methyl)-N-(1-methylcyclopropyl)-5-oxo-1,2,4,5-tetrahydroimidazo[1,2-a]quinazoline-7-sulfonamide] | ≤ 0.1
C[C@@H]1N2C(=NC1(C)C)N(Cc1cnn(C)c1)C(=O)c1cc(S(=O)(=O)NC3(C)CC3)ccc12 [Example 110, (S)-1,2,2-trimethyl-4-((1-methyl-1H-pyrazol-4-yl)methyl)-N-(1-methylcyclopropyl)-5-oxo-1,2,4,5-tetrahydroimidazo[1,2-a]quinazoline-7-sulfonamide] | 0.1 to 1
C[C@H]1N2C(=NC1(C)C)N(Cc1cnn(C)c1)C(=O)c1cc(S(=O)(=O)NC3(C)CC3)ccc12 [Example 111, (R)-1,2,2-trimethyl-4-((1-methyl-1H-pyrazol-4-yl)methyl)-N-(1-methylcyclopropyl)-5-oxo-1,2,4,5-tetrahydroimidazo[1,2-a]quinazoline-7-sulfonamide] | ≤ 0.1
Cc1ncc(CN2C(=O)c3cc(S(=O)(=O)NC4(C)CC4)ccc3N3C2=NC[C@H]3C)[nH]1 [Example 112, (R)-1-methyl-4-((2-methyl-1H-imidazol-5-yl)methyl)-N-(1-methylcyclopropyl)-5-oxo-1,2,4,5-tetrahydroimidazo[1,2-a]quinazoline-7-sulfonamide] | 1 to 10
[2H]C([2H])(c1sc(C)nc1C)N1C(=O)c2cc(S(=O)(=O)NC3(C)CC3)c(F)cc2N2C1=NC[C@H]2C [Example 113, (R)-4-(dideutero(2,4-dimethylthiazol-5-yl)methyl)-8-fluoro-1-methyl-N-(1-methylcyclopropyl)-5-oxo-1,2,4,5-tetrahydroimidazo[1,2-a]quinazoline-7-sulfonamide] | ≤ 0.1
C[C@@H]1CN=C2N1c1ccc(S(=O)(=O)NC3(C)CC3)cc1C(=O)N2C1(c2cnn(C)c2)CC1 [Example 114, (R)-1-methyl-4-(1-(1-methyl-1H-pyrazol-4-yl)cydopropyl)-N-(1-methylcyclopropyl)-5-oxo-1,2,4,5-tetrahydroimidazo[1,2-a]quinazoline-7-sulfonamide] | 1 to 10
Cc1ncn(C)c1CN1C(=O)c2cc(S(=O)(=O)NC3(C)CC3)ccc2N2C1=NC[C@H]2C [Example 115, (R)-4-((1,4-dimethyl-1H-imidazol-5-yl)methyl)-1-methyl-N-(1-methylcyclopropyl)-5-oxo-1,2,4,5-tetrahydroimidazo[1,2-a]quinazoline-7-sulfonamide] | 0.1 to 1
Cn1cc(CN2C(=O)c3cc(S(=O)(=O)NC4(C)CC4)ccc3N3CC4(COC4)N=C23)cn1 [Example 116, 4-((1-methyl-1H-pyrazol-4-yl)methyl)-N-(1-methylcyclopropyl)-5-oxo-4,5-dihydro-1H-spiro[imidazo[1,2-a]quinazoline-2,3′-oxetane]-7-sulfonamide] | 0.1 to 1
CCC1(C)CN2C(=N1)N(Cc1cnn(C)c1)C(=O)c1cc(S(=O)(=O)NC3(C)CC3)ccc12 (centres unmarked) [Example 117, 2-ethyl-2-methyl-4-((1-methyl-1H-pyrazol-4-yl)methyl)-N-(1-methylcyclopropyl)-5-oxo-1,2,4,5-tetrahydroimidazo[1,2-a]quinazoline-7-sulfonamide] | ≤ 0.1
C[C@@H]1CN=C2N(Cc3cnn4c3CCC4)C(=O)c3cc(S(=O)(=O)NC4(C)CC4)ccc3N21 [Example 118, (R)-4-((5,6-dihydro-4H-pyrrolo[1,2-b]pyrazol-3-yl)methyl)-1-methyl-N-(1-methylcyclopropyl)-5-oxo-1,2,4,5-tetrahydroimidazo[1,2-a]quinazoline-7-sulfonamide] | ≤ 0.1
